Measured values published in ChEMBL document CHEMBL1133438, “Potent acetylcholinesterase inhibitors: design, synthesis and structure-activity relationships of alkylene linked bis-galanthamine and galanthamine-galanthaminium salts” (Bioorg Med Chem Lett, 2000).

Biological target: Acetylcholinesterase (Electrophorus electricus, UniProt O42275)
Assay: Compound was assessed for in vitro inhibition of Acetylcholinesterase isolated from Electrophorus electricus

Acetylcholinesterase, sequence (O42275 whole entry): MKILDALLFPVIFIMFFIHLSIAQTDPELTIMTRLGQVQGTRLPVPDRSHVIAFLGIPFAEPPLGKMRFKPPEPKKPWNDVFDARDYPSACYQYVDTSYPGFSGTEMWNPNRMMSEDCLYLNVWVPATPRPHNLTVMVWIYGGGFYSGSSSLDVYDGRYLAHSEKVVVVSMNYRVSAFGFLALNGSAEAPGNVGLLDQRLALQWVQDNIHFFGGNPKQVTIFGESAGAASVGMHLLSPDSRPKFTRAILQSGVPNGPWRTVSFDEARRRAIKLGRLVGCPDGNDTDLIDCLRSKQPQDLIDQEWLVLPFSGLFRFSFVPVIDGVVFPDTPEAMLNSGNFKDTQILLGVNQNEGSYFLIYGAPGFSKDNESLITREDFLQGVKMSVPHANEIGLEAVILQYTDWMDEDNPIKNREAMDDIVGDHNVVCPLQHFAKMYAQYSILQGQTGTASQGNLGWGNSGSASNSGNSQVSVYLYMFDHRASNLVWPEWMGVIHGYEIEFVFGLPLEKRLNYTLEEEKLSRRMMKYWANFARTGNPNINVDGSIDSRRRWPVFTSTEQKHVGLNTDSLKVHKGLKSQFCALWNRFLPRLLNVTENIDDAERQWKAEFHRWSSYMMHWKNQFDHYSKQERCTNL

Structure (SMILES)	IC50 [nM]
COc1ccc2c3c1OC1C[C@@H](O)C=C[C@@]31CCN(CCCCCCCCN1CC[C@@]34C=C[C@H](OC)C[C@@H]3Oc3c(OC)ccc(c34)C1)C2 (stereo partly specified)	230
COc1ccc2c3c1OC1C[C@@H](O)C=C[C@@]31CC[N+](CCCCCCN1CC[C@@]34C=C[C@H](O)C[C@@H]3Oc3c(OC)ccc(c34)C1)=C2 (stereo partly specified)	68
COc1ccc2c3c1OC1C[C@@H](O)C=C[C@@]31CCN(CCCCCCCCCCN1CC[C@@]34C=C[C@H](OC)C[C@@H]3Oc3c(OC)ccc(c34)C1)C2 (stereo partly specified)	560
COc1ccc2c3c1OC1C[C@@H](O)C=C[C@@]31CC[N+](CCCCCCCCN1CC[C@@]34C=C[C@H](O)C[C@@H]3Oc3c(OC)ccc(c34)C1)=C2 (stereo partly specified)	22
COc1ccc2c3c1OC1C[C@@H](O)C=C[C@@]31CC[N+](CCCCCCCCCCN1CC[C@@]34C=C[C@H](O)C[C@@H]3Oc3c(OC)ccc(c34)C1)=C2 (stereo partly specified)	12
COc1ccc2c3c1OC1C[C@@H](O)C=C[C@@]31CCN(CCCCCCN1CC[C@@]34C=C[C@H](OC)C[C@@H]3Oc3c(OC)ccc(c34)C1)C2 (stereo partly specified)	450
